pIC50: −log10 of the molar value. Active and inactive are the calls of the source. The calls are words filed in the database; no cut-off is given here.
Assays:
THP-1 [1] = assay: Induction of apoptosis in human THP-1 cells assessed as viable cells at 0.5 uM incubated for 48 hrs by Annexin V-FITC/PI staining based flow cytometry (reference value: 96.33 %); assay type: functional; settings: read-out: Activity
SK-OV-3 [2] = assay: Induction of apoptosis in human SK-OV-3 cells assessed as late apoptotic cells at 5 uM incubated for 48 hrs by Annexin V-FITC/PI staining based flow cytometry (reference value: 4.51 %); assay type: functional
SK-OV-3 [3] = assay: Induction of apoptosis in human SK-OV-3 cells assessed as change in mitochondrial membrane potential at 2.5 uM incubated for 48 hrs by JC-1 staining based flow cytometry (reference value: 5.34 %); assay type: functional
SK-OV-3 [4] = assay: Induction of apoptosis in human SK-OV-3 cells assessed as change in mitochondrial membrane potential at 1 uM incubated for 48 hrs by JC-1 staining based flow cytometry (reference value: 5.34 %); assay type: functional
[5] = target: Signal transducer and activator of transcription 3 (Homo sapiens) (UniProt P40763); assay: Inhibition of STAT3 phosphorylation in human THP-1 cells at 0.5 to 2.5 uM incubated for 48 hrs by Western blot analysis; assay type: cell-based; settings: dose 0.5-2.5 µM
SK-OV-3 [6] = assay: Induction of apoptosis in human SK-OV-3 cells assessed as late apoptotic cells at 2.5 uM incubated for 48 hrs by Annexin V-FITC/PI staining based flow cytometry (reference value: 4.51 %); assay type: functional
THP-1 [7] = assay: Induction of apoptosis in human THP-1 cells assessed as necrotic cells at 0.5 uM incubated for 48 hrs by Annexin V-FITC/PI staining based flow cytometry (reference value: 2.48 %); assay type: functional
SK-OV-3 [8] = assay: Induction of apoptosis in human SK-OV-3 cells assessed as viable cells at 5 uM incubated for 48 hrs by Annexin V-FITC/PI staining based flow cytometry (reference value: 90.97 %); assay type: functional; settings: read-out: Activity
THP-1 [9] = assay: Induction of apoptosis in human THP-1 cells assessed as late apoptotic cells at 0.5 uM incubated for 48 hrs by Annexin V-FITC/PI staining based flow cytometry (reference value: 0.74 %); assay type: functional
THP-1 [10] = assay: Induction of apoptosis in human THP-1 cells assessed as change in mitochondrial membrane potential at 1 uM incubated for 48 hrs by JC-1 staining based flow cytometry (reference value: 5.15 %); assay type: functional
THP-1 [11] = assay: Induction of apoptosis in human THP-1 cells assessed as necrotic cells at 1 uM incubated for 48 hrs by Annexin V-FITC/PI staining based flow cytometry (reference value: 2.48 %); assay type: functional
KG-1 [12] = assay: Antiproliferative activity against human KG-1 cells assessed as inhibition of cell growth incubated for 72 hrs by MTT assay; assay type: functional, cell-based; settings: KG-1, 72 h
THP-1 [13] = assay: Induction of apoptosis in human THP-1 cells assessed as late apoptotic cells at 1 uM incubated for 48 hrs by Annexin V-FITC/PI staining based flow cytometry (reference value: 0.74 %); assay type: functional
THP-1 [14] = assay: Induction of apoptosis in human THP-1 cells assessed as early apoptotic cells at 2.5 uM incubated for 48 hrs by Annexin V-FITC/PI staining based flow cytometry (reference value: 0.45 %); assay type: functional
U-937 = assay: Antiproliferative activity against human U-937 cells assessed as inhibition of cell growth incubated for 72 hrs by MTT assay; assay type: functional, cell-based; settings: U-937, 72 h
THP-1 [15] = assay: Induction of apoptosis in human THP-1 cells assessed as necrotic cells at 2.5 uM incubated for 48 hrs by Annexin V-FITC/PI staining based flow cytometry (reference value: 2.48 %); assay type: functional
THP-1 [16] = assay: Induction of apoptosis in human THP-1 cells assessed as change in mitochondrial membrane potential at 0.5 uM incubated for 48 hrs by JC-1 staining based flow cytometry (reference value: 5.15 %); assay type: functional
THP-1 [17] = assay: Induction of apoptosis in human THP-1 cells assessed as viable cells at 2.5 uM incubated for 48 hrs by Annexin V-FITC/PI staining based flow cytometry (reference value: 96.33 %); assay type: functional; settings: read-out: Activity
SK-OV-3 [18] = assay: Induction of apoptosis in human SK-OV-3 cells assessed as viable cells at 1 uM incubated for 48 hrs by Annexin V-FITC/PI staining based flow cytometry (reference value: 90.97 %); assay type: functional; settings: read-out: Activity
SK-OV-3 [19] = assay: Induction of apoptosis in human SK-OV-3 cells assessed as necrotic cells at 5 uM incubated for 48 hrs by Annexin V-FITC/PI staining based flow cytometry (reference value: 4.45 %); assay type: functional
SK-OV-3 [20] = assay: Induction of apoptosis in human SK-OV-3 cells assessed as early apoptotic cells at 2.5 uM incubated for 48 hrs by Annexin V-FITC/PI staining based flow cytometry (reference value: 0.08 %); assay type: functional
SK-OV-3 [21] = assay: Induction of apoptosis in human SK-OV-3 cells assessed as necrotic cells at 1 uM incubated for 48 hrs by Annexin V-FITC/PI staining based flow cytometry (reference value: 4.45 %); assay type: functional
SK-OV-3 [22] = assay: Induction of apoptosis in human SK-OV-3 cells assessed as early apoptotic cells at 5 uM incubated for 48 hrs by Annexin V-FITC/PI staining based flow cytometry (reference value: 0.08 %); assay type: functional
THP-1 [23] = assay: Induction of apoptosis in human THP-1 cells assessed as change in mitochondrial membrane potential at 2.5 uM incubated for 48 hrs by JC-1 staining based flow cytometry (reference value: 5.15 %); assay type: functional
SK-OV-3 [24] = assay: Induction of apoptosis in human SK-OV-3 cells assessed as necrotic cells at 2.5 uM incubated for 48 hrs by Annexin V-FITC/PI staining based flow cytometry (reference value: 4.45 %); assay type: functional
THP-1 [25] = assay: Induction of apoptosis in human THP-1 cells assessed as early apoptotic cells at 1 uM incubated for 48 hrs by Annexin V-FITC/PI staining based flow cytometry (reference value: 0.45 %); assay type: functional
SK-OV-3 [26] = assay: Induction of apoptosis in human SK-OV-3 cells assessed as late apoptotic cells at 1 uM incubated for 48 hrs by Annexin V-FITC/PI staining based flow cytometry (reference value: 4.51 %); assay type: functional
[27] = target: Signal transducer and activator of transcription 3 (Homo sapiens) (UniProt P40763); assay: Inhibition of STAT3 phosphorylation in human KG-1 cells at 0.5 to 2.5 uM incubated for 48 hrs by Western blot analysis; assay type: cell-based; settings: dose 0.5-2.5 µM
SK-OV-3 [28] = assay: Induction of apoptosis in human SK-OV-3 cells assessed as early apoptotic cells at 1 uM incubated for 48 hrs by Annexin V-FITC/PI staining based flow cytometry (reference value: 0.08 %); assay type: functional
THP-1 [29] = assay: Antiproliferative activity against human THP-1 cells assessed as inhibition of cell growth incubated for 72 hrs by MTT assay; assay type: functional, cell-based; settings: THP-1, 72 h
SK-OV-3 [30] = assay: Antiproliferative activity against human SK-OV-3 cells assessed as inhibition of cell growth incubated for 72 hrs by MTT assay; assay type: functional, cell-based; settings: SK-OV-3, 72 h
THP-1 [31] = assay: Induction of apoptosis in human THP-1 cells assessed as viable cells at 1 uM incubated for 48 hrs by Annexin V-FITC/PI staining based flow cytometry (reference value: 96.33 %); assay type: functional; settings: read-out: Activity
THP-1 [32] = assay: Induction of apoptosis in human THP-1 cells assessed as early apoptotic cells at 0.5 uM incubated for 48 hrs by Annexin V-FITC/PI staining based flow cytometry (reference value: 0.45 %); assay type: functional
KG-1 [33] = assay: Downregulation of XIAP expression in human KG-1 cells incubated for 48 hrs by Western blot analysis; assay type: functional, cell-based; settings: dose 0.5-2.5 µM

Sequence of Signal transducer and activator of transcription 3 (Homo sapiens) (P40763 whole entry): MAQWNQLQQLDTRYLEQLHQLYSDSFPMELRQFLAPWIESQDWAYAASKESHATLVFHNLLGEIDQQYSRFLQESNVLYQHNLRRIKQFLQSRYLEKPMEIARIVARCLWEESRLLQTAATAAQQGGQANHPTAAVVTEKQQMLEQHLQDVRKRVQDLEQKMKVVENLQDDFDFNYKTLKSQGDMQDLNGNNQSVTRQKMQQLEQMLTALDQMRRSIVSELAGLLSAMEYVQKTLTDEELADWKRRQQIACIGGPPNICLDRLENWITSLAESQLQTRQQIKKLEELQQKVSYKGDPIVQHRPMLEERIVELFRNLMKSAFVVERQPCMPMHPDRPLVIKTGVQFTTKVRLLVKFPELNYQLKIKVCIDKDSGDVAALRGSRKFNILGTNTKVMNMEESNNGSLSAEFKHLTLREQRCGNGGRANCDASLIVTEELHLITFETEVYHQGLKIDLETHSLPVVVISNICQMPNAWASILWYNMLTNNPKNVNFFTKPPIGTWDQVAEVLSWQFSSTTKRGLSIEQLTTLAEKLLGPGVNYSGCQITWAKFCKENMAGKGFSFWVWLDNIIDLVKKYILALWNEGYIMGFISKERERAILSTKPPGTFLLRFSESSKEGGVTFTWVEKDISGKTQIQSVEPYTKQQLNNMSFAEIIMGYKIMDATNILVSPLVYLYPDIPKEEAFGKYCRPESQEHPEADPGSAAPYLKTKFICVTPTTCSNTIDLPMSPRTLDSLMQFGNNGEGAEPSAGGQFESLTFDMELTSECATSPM

SMILES | viability at 0.5 µM (THP-1 [1]) [%] | Activity (SK-OV-3 [2]) [%] | Activity (SK-OV-3 [3]) [%] | Activity (SK-OV-3 [4]) [%] | inhibition [5] | Activity (SK-OV-3 [6]) [%] | Activity (THP-1 [7]) [%] | viability at 5 µM (SK-OV-3 [8]) [%] | Activity (THP-1 [9]) [%] | Activity (THP-1 [10]) [%] | Activity (THP-1 [11]) [%] | pIC50 (KG-1 [12]) | Activity (THP-1 [13]) [%] | Activity (THP-1 [14]) [%] | pIC50 (U-937) | Activity (THP-1 [15]) [%] | Activity (THP-1 [16]) [%] | viability at 2.5 µM (THP-1 [17]) [%] | viability at 1 µM (SK-OV-3 [18]) [%] | Activity (SK-OV-3 [19]) [%] | further results
CCc1nccnc1C(=O)/C=C/c1ccccn1 | 93.5 | 45.06 | 17.88 | 11.51 | Active | 23.46 | 2.41 | 44.6 | 1.53 | 9.01 | 1.94 | 6.20 | 1.73 | 13.09 | 6.16 | 1.77 | 6.52 | 81.9 | 71.2 | 8.84 | Activity (SK-OV-3 [20]): 0.41%; Activity (SK-OV-3 [21]): 8.98%; Activity (SK-OV-3 [22]): 1.46%; Activity (THP-1 [23]): 26.66%; Activity (SK-OV-3 [24]): 9.16%; Activity (THP-1 [25]): 4.75%; Activity (SK-OV-3 [26]): 19.41%; inhibition [27]: Active; Activity (SK-OV-3 [28]): 0.37%; pIC50 (THP-1 [29]): 6.22; pIC50 (SK-OV-3 [30]): 5.88; viability at 1 µM (THP-1 [31]): 91.6%; Activity (THP-1 [32]): 2.51%; Activity (KG-1 [33]): Dose-dependent-effect
Cc1nccnc1C(=O)/C=C/c1cccc(C#N)c1 | 93.3 | 65.66 | 18.87 | 13.1 | Active | 26.65 | 1.78 | 22.5 | 1.46 | 7.94 | 2.24 | 5.75 | 1.94 | 15.05 | 5.76 | 2.27 | 6.42 | 77.8 | 72.4 | 9.68 | Activity (SK-OV-3 [20]): 0.77%; Activity (SK-OV-3 [21]): 5.49%; Activity (SK-OV-3 [22]): 2.19%; Activity (THP-1 [23]): 29.42%; Activity (SK-OV-3 [24]): 9.29%; Activity (THP-1 [25]): 3.12%; Activity (SK-OV-3 [26]): 21.04%; inhibition [27]: Active; Activity (SK-OV-3 [28]): 1.09%; pIC50 (THP-1 [29]): 5.82; pIC50 (SK-OV-3 [30]): 5.86; viability at 1 µM (THP-1 [31]): 92.7%; Activity (THP-1 [32]): 3.41%; Activity (KG-1 [33]): Dose-dependent-effect

— ChEMBL document CHEMBL6114992, “Design, synthesis, biological evaluation, and mechanism of action of new pyrazines as anticancer agents in vitro and in vivo” (Bioorg Med Chem, 2025)
